Experimental data published in the supplement of paper PMC10307832.

How the values were obtained:
Assay in all cases: relative viability (nuclei count vs DMSO), 5 days (fraction); higher = more cells survive
Neratinib + Bortezomib = compound: CCOc1cc2ncc(C#N)c(Nc3ccc(OCc4ccccn4)c(Cl)c3)c2cc1NC(=O)/C=C/CN(C)C [Neratinib] + CC(C)C[C@H](NC(=O)[C@H](Cc1ccccc1)NC(=O)c1cnccn1)B(O)O [Bortezomib] (partner 0.002 µM)
How it was run: (§1)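 Lung cancer cell lines were pin-tool dosed in 1536-well plates on the day after seeding, with either a lone drug or a fixed anchor-drug dose plus five library-drug doses (not always all listed) in √10 steps. Nuclei were counted on 4× images after 5 days. Relative viability is the ratio of treated-well to vehicle-well nuclei counts, with each value a median of duplicate plates.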

Neratinib + Foretinib = compound: CCOc1cc2ncc(C#N)c(Nc3ccc(OCc4ccccn4)c(Cl)c3)c2cc1NC(=O)/C=C/CN(C)C [Neratinib] + COc1cc2c(Oc3ccc(NC(=O)C4(C(=O)Nc5ccc(F)cc5)CC4)cc3F)ccnc2cc1OCCCN1CCOCC1 [Foretinib] (partner 0.25 µM)
How it was run: as §1

Neratinib + Pictilisib = compound: CCOc1cc2ncc(C#N)c(Nc3ccc(OCc4ccccn4)c(Cl)c3)c2cc1NC(=O)/C=C/CN(C)C [Neratinib] + CS(=O)(=O)N1CCN(Cc2cc3nc(-c4cccc5[nH]ncc45)nc(N4CCOCC4)c3s2)CC1 [Pictilisib] (partner 1 µM)
How it was run: as §1

Neratinib + Palbociclib = compound: CCOc1cc2ncc(C#N)c(Nc3ccc(OCc4ccccn4)c(Cl)c3)c2cc1NC(=O)/C=C/CN(C)C [Neratinib] + CC(=O)c1c(C)c2cnc(Nc3ccc(N4CCNCC4)cn3)nc2n(C2CCCC2)c1=O [Palbociclib] (partner 0.5 µM)
How it was run: as §1

Row | Cell Line | relative viability (Neratinib + Bortezomib; first compound 0.01 µM) | relative viability (Neratinib + Bortezomib; first compound 0.03162 µM) | relative viability (Neratinib + Bortezomib; first compound 0.1 µM) | relative viability (Neratinib + Bortezomib; first compound 0.3162 µM) | relative viability (Neratinib + Bortezomib; first compound 1 µM) | relative viability (Neratinib + Foretinib; first compound 0.01 µM) | relative viability (Neratinib + Foretinib; first compound 0.03162 µM) | relative viability (Neratinib + Foretinib; first compound 0.1 µM) | relative viability (Neratinib + Foretinib; first compound 0.3162 µM) | relative viability (Neratinib + Foretinib; first compound 1 µM) | relative viability (Neratinib + Pictilisib; first compound 0.01 µM) | relative viability (Neratinib + Pictilisib; first compound 0.03162 µM) | relative viability (Neratinib + Pictilisib; first compound 0.1 µM) | relative viability (Neratinib + Pictilisib; first compound 0.3162 µM) | relative viability (Neratinib + Pictilisib; first compound 1 µM) | relative viability (Neratinib + Palbociclib; first compound 0.01 µM) | relative viability (Neratinib + Palbociclib; first compound 0.03162 µM) | relative viability (Neratinib + Palbociclib; first compound 0.1 µM) | relative viability (Neratinib + Palbociclib; first compound 0.3162 µM) | relative viability (Neratinib + Palbociclib; first compound 1 µM)
1 | PC-14 | 0.88 | 0.86 | 0.741 | 0.918 | 0.158 | 1.04 | 0.973 | 0.862 | 0.929 | 0.335 | 0.927 | 0.805 | 0.66 | 0.121 | 0.101 | 0.625 | 0.672 | 0.474 | 0.0909 | 0.0675
2 | RERF-LC-KJ | 1.19 | 1.07 | 0.87 | 0.878 | 0.596 | 0.924 | 0.992 | 0.896 | 0.872 | 0.43 | 0.554 | 0.501 | 0.435 | 0.384 | 0.276 | 1.16 | 1.16 | 1.08 | 0.84 | 0.467
3 | SK-LU-1 | 1.3 | 1.5 | 1.34 | 1.14 | 0.504 | 0.917 | 0.938 | 0.816 | 0.46 | 0.302 | 0.647 | 0.65 | 0.514 | 0.505 | 0.34 | 0.389 | 0.447 | 0.376 | 0.373 | 0.288
4 | SW 1573 | 1.07 | 1.28 | 0.998 | 1.08 | 0.843 | 1.15 | 0.894 | 0.941 | 0.97 | 0.722 | 0.523 | 0.586 | 0.399 | 0.508 | 0.249 | 0.382 | 0.422 | 0.428 | 0.289 | 0.217
5 | UMC-11 | 0.623 | 0.964 | 0.823 | 0.615 | 0.729 | 0.989 | 1.13 | 1.02 | 0.954 |  | 0.776 | 1.06 | 0.566 | 0.746 | 0.701 | 0.321 | 0.327 | 0.319 | 0.335 | 0.243
